According to patent US8535672B2, “Broad-spectrum in-vivo effective superantigen toxin antagonists based on the interaction between CD28 and the superantigen and uses thereof” (Yissum Research Development of the Hebrew University of …, priority 2003, dated 2013):
“Also recorded” adds a separate entry of the source. Non-standard residues stand in square brackets, D forms with d. Residues, ends and D or L forms follow the SMILES beside them. No end group written: not given here.

How the values were obtained:
[1] = target: T1, PD-1 (Homo sapiens, UniProt Q15116); assay type: binding
T1 construct: comprise the extracellular 37-162, 19-152, 21-141, 24-167 and 20-239 amino acid, respectively, of the mature human ligands domain; purchased R&D Systems; host or cells: mouse myeloma NS0 cells
T1 sequence (Q15116 24-167): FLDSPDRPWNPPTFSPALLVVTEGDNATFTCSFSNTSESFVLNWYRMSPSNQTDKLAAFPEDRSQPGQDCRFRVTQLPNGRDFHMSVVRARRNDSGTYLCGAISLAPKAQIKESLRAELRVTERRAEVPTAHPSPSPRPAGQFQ

[2] = system: IL2 and IFN-γ mRNA induced by SEB in human PBMC; assay type: cell-based
[3] = system: IL2 and IFN-γ mRNA in human PBMC; assay type: cell-based
[4] = system: IL2 and IFN-γ mRNA induced by αCD28, αCD3, sB7-2 in human PBMC; assay type: cell-based
[5] = system: IL10 and IL4 induced by SEB in human PBMC; assay type: cell-based
[6] = target: T2, soluble CD28 (sCD28) (Homo sapiens, UniProt P10747); assay type: binding
T2 construct: comprise the extracellular 37-162, 19-152, 21-141, 24-167 and 20-239 amino acid, respectively, of the mature human ligands domain; purchased R&D Systems 342-CD; host or cells: mouse myeloma NS0 cells

[7] = target: T3, SEB (Staphylococcus aureus, UniProt P01552); parameters: species or system BALB/c mice; details: mouse
[8] = mouse, in vivo
[9] = system: IL2 and IFN-γ mRNA induced by TSST-1 in human PBMC; assay type: cell-based
[10] = target: T4, sCD28 (Homo sapiens, UniProt P10747); assay: ELISA: binding of anti-CD28 to immobilized sCD28 in presence of antagonist peptide; details: 1,000-fold diluted anti-CD28, p14A from 0.1 μg per ml
T4 construct: comprise the extracellular 37-162, 19-152, 21-141, 24-167 and 20-239 amino acid, respectively, of the mature human ligands domain; purchased R&D Systems 342-CD; host or cells: mouse myeloma NS0 cells
Method: An amount of 250 ng sCD28 was immobilized on an ELISA microtiter plate and binding of anti-CD28 at the two indicated dilutions (corresponding to 250 and 125 ng/ml, respectively) was measured by use of a secondary antibody coupled to alkaline phosphatase, recording absorbency at 450 nm. p14A was either absent (Control) or present at the indicated concentrations. Abbreviations: bin. (binding), Un. (units), cont. (control), ml (milliliter), μg (microgram), α (anti).
Yet another assay was devised to show a direct interaction between antagonist peptide and sCD28. The inventors developed an enzyme-linked immune sorbent assay (ELISA) in which sCD28 is immobilized in the wells of a microtiter ELISA plate and binding of anti-CD28 is measured by use of a secondary antibody coupled to alkaline phosphatase. It is seen in FIG. 16 that binding of 1,000-fold diluted anti-CD28 to the plate was inhibited by p14A even at a concentration of only 0.1 μg per ml. […] Thus, antagonist peptide p14A is a powerful inhibitor of the interaction between anti-CD28 and sCD28.

[11] = system: IL10 in human PBMC; assay type: cell-based
[12] = target: T5, sCD28/sB7-2 (Homo sapiens, UniProt P10747); assay type: binding
T5 construct: comprise the extracellular 37-162, 19-152, 21-141, 24-167 and 20-239 amino acid, respectively, of the mature human ligands domain; purchased R&D Systems 342-CD (sCD28); host or cells: mouse myeloma NS0 cells

[13] = target: T4, sCD28; assay type: binding
[14] = target: T3, SEB
[15] = system: p14A; assay type: binding
[16] = target: T3, SEB; remark: listed apart in the source

## CC(C)C[C@H](NC(=O)[C@H](CCC(=O)O)NC(=O)[C@H](CCC(N)=O)NC(=O)[C@@H](NC(=O)[C@@H](NC(=O)[C@H](C)NC(=O)[C@H](CCCCN)NC(=O)[C@H](CCCCN)NC(=O)[C@H](CCCCN)NC(=O)[C@H](CC(N)=O)NC(=O)[C@H](Cc1ccc(O)cc1)NC(=O)[C@@H](N)CS)[C@@H](C)O)C(C)C)C(=O)N[C@@H](CC(=O)O)C(=O)N[C@@H](CS)C(=O)O [p12C] (H-CYNKKKATVQELDC-OH)
[1]
  binding of PD-1 to immobilized peptide: failed to bind significantly
[2]
  antagonism of SEB-mediated induction of IL2 and IFN-γ mRNA: as active as p14A

## AAAAAAAAAAMYPPPY [control peptide containing another motif in the sCD28 molecule, reference compound]
[3]
  induction of Th1 cytokine mRNA by the substance alone (agonist activity): Neither pTA nor AAAAAAAAAAMYPPPY (SEQ ID NO: 7) alone were active as inducer
[2]
  antagonism of SEB-mediated induction of IL2 and IFN-γ mRNA: did not show antagonist activity

## AAAAAAAHVKGKHLCP [pTA]
[4]
  effect on induction of IL2/IFN-γ mRNA by αCD28 alone: inhibited
[3]
  induction of Th1 cytokine mRNA by the substance alone (agonist activity): Neither pTA nor AAAAAAAAAAMYPPPY (SEQ ID NO: 7) alone were active as inducer
[2]
  antagonism of SEB-mediated induction of IL2 and IFN-γ mRNA: blocked
[5]
  effect on SEB-mediated induction of IL10 / IL4 (Th2 response): left the induction of IL10 and IL4 intact

## APMYHKHRLEKH (Synthetic peptide pe6)
[2]
  antagonism of SEB-mediated induction of IL2 and IFN-γ mRNA: inhibited

## C-EKAKYTQLVKDN-C (CEKAKYTQLVKDNC; terminal cysteines; Sequence of artificial peptide p12Csc) [randomly scrambled p12C, reference compound]
[6]
  binding to CD28 (SPR): failed to bind CD28

## CHGHLVPKK (Synthetic scrambled control peptide p1TAsc) [scrambled form of p1TA, reference compound]
[7]; in vivo
  protection of mice from lethal SEB challenge: failed to provide protection
[2]
  antagonism of SEB-mediated induction of IL2 and IFN-γ mRNA: lacked antagonist activity

## FHKHKNPGSPII [pc3]
[7]
  molar excess (ratio) over SEB at which protective in vivo: about equimolar ratio
[7]; in vivo
  mice surviving SEB challenge / group: 7/10
[3]
  induction of Th1 cytokine mRNA by the substance alone (agonist activity): lacked superantigen agonist activity
[2]
  antagonism of SEB-mediated induction of IL2 and IFN-γ mRNA: inhibited
[5]
  effect on SEB-mediated induction of IL10 / IL4 (Th2 response): failed to inhibit induction of IL10
[8]
  toxicity of peptide alone: lacked detectable toxicity

## GEINGSAN (Synthetic peptide p2TC)
[7]; in vivo
  protection of mice from lethal SEB challenge: protected mice from lethal challenge
[2]
  antagonism of SEB-mediated induction of IL2 and IFN-γ mRNA: inhibited

## HVKGKHLCP (Synthetic peptide p1TA)
[9]
  inhibition of induction of IL2 and IFN-γ mRNA by TSST-1: inhibited
[7]
  molar excess (ratio) over SEB at which protective in vivo: 3.6 fold
[7]; in vivo
  mice surviving SEB challenge / group: 7/10
[2]
  antagonism of SEB-mediated induction of IL2 and IFN-γ mRNA: antagonized
[8]
  concentration without detectable toxicity, relative to that needed for protection: 25 fold
  toxicity of peptide alone: lacked detectable toxicity

## IHKPHHHRTPLW (Synthetic peptide pf8)
[2]
  antagonism of SEB-mediated induction of IL2 and IFN-γ mRNA: inhibited

## PAVVLASS (Synthetic peptide p2TB)
[7]
  molar excess (ratio) over SEB at which protective in vivo: 2 fold
[7]; in vivo
  protection of mice from lethal SEB challenge: protected mice from lethal challenge
[2]
  antagonism of SEB-mediated induction of IL2 and IFN-γ mRNA: inhibited
[5]
  effect on SEB-mediated induction of IL10 / IL4 (Th2 response): left induction of IL10 intact

## SHFTHNRHGHST (Synthetic Peptide pe12)
[7]
  molar excess (ratio) over SEB at which protective in vivo: about equimolar ratio
[7]; in vivo
  mice surviving SEB challenge / group: 8/10
[3]
  induction of Th1 cytokine mRNA by the substance alone (agonist activity): lacked superantigen agonist activity
[2]
  antagonism of SEB-mediated induction of IL2 and IFN-γ mRNA: strongly inhibited
[5]
  effect on SEB-mediated induction of IL10 / IL4 (Th2 response): failed to inhibit induction of IL10
[8]
  toxicity of peptide alone: lacked detectable toxicity

## SPMLVAYD [p2TA]
[9]
  inhibition of induction of IL2 and IFN-γ mRNA by TSST-1: inhibited
[7]
  molar excess (ratio) over SEB at which protective in vivo: 0.8 fold
[7]; in vivo
  mice surviving SEB challenge / group: 8/10
[2]
  antagonism of SEB-mediated induction of IL2 and IFN-γ mRNA: antagonized
[8]
  concentration without detectable toxicity, relative to that needed for protection: 125 fold
  toxicity of peptide alone: lacked detectable toxicity

## WHAHPHKKPVVA [pd7]
[7]; in vivo
  mice surviving SEB challenge / group: 4/10
[3]
  induction of Th1 cytokine mRNA by the substance alone (agonist activity): lacked superantigen agonist activity
[2]
  antagonism of SEB-mediated induction of IL2 and IFN-γ mRNA: inhibited
[5]
  effect on SEB-mediated induction of IL10 / IL4 (Th2 response): failed to inhibit induction of IL10
[8]
  toxicity of peptide alone: lacked detectable toxicity

## YESQLCCQL (Synthetic peptide p1TC)
[7]; in vivo
  protection of mice from lethal SEB challenge: protected mice from lethal challenge
[2]
  antagonism of SEB-mediated induction of IL2 and IFN-γ mRNA: inhibited

## YVIDPEPCP (Synthetic peptide p1TB)
[7]
  molar excess (ratio) over SEB at which protective in vivo: 3.6 fold
[7]; in vivo
  protection of mice from lethal SEB challenge: protected mice from lethal challenge
[2]
  antagonism of SEB-mediated induction of IL2 and IFN-γ mRNA: inhibited
[5]
  effect on SEB-mediated induction of IL10 / IL4 (Th2 response): left induction of IL10 intact

## daV Q Y N K K K A T V Q E L Dda ([dA]VQYNKKKATVQELD[dA]) [p14A]
[6]
  binding to CD28 (SPR): bind directly to CD28
[10]
  effect on binding of anti-CD28 to sCD28 (ELISA): inhibited
[11]
  effect on induction of IL10 by αCD28/αCD3: resistant
  effect on induction of IL-10 by sB7-2/anti-CD3: largely resistant
[7]
  molar excess (ratio) over SEB at which protective in vivo: 12 fold
[7]; in vivo
  protection from lethal SEB challenge: 70%
[4]
  effect on induction of IFN-γ mRNA by anti-CD3 alone: did not inhibit
  effect on induction of IFN-γ mRNA by anti-CD3 with sB7-2: abrogated
  effect on induction of IFN-γ mRNA by sB7-2 alone: shifted the induction by sB7-2 alone to earlier times; also recorded: stimulated induction significantly
  effect on induction of IL2/IFN-γ mRNA by αCD28 alone: blocked
  effect on induction of IL2/IFN-γ mRNA by αCD28 and αCD3 combined: eliminated virtually in full
[12]
  effect on plasmon resonance signal for binding of sCD28 to sB7-2: enhanced significantly
[2]
  antagonism of SEB-mediated induction of IL2 and IFN-γ mRNA: blocked
[5]
  effect on SEB-mediated induction of IL10 / IL4 (Th2 response): left induction of the Th2-type cytokines IL-10 and IL-4 intact
[13]
  effect on plasmon resonance signal for binding of anti-CD28 to sCD28: reduced

## pSEB(41-61): a peptide that lacks antagonist activity (IDQFLYFDLIYSIKDTKLGNY; UniProt P01552 68-88, looked up, fragment) [reference compound]
[12]
  effect on plasmon resonance signal for binding of sCD28 to sB7-2: only slightly

## sCD28: recombinant soluble CD28: extracellular domain of human CD28 fused to His6-tagged Fc of human IgG (R&D Systems 342-CD)
[4]
  effect on induction of IL2/IFN-γ mRNA by αCD28 alone: inhibited
[14]
  competition of anti-SEB Ab binding to SEB (ELISA): about 75%
[3]
  induction of Th1 cytokine mRNA by the substance alone (agonist activity): did not induce IFN-γ mRNA
[2]
  antagonism of SEB-mediated induction of IL2 and IFN-γ mRNA: dose-dependent manner
  inhibition of SEB induction of IFN-γ mRNA: about twenty fold
  inhibition of SEB induction of IL-2 mRNA: 3.5 fold
[15]
  inhibition of anti-p14A Ab binding to p14A (ELISA): over 90%
[16]
  inhibition of binding of anti-SEB Ab to SEB: 84%
  reduction of anti-SEB binding to SEB: about 5 fold
